Measurements from patent US6429204B1, “Method of inhibiting cancer growth” (University of Miami, priority 1997, dated 2002).
In brackets after ≈: the same amount, converted by molar mass.

Columns and labels:
[1] = MTS cytotoxicity assay, E-10; details: human, E-10 clone of MDA-MB-231 breast carcinoma cells, percent cytotoxicity, two days
Procedure: A panel of chemically modified tetracycline compounds and doxycycline were tested for cytotoxicity against two carcinomas: COLO 205 (a human colon carcinoma-derived cell line) and the E-10 clone of MDA-MB-231 (a human breast carcinoma-derived cell line). Cytoxicity was measured using a conventional assay for viability with a tetrazolium salt (MTS). Cells were grown in media containing the CMTs at concentrations ranging from 5 μM to 100 μM for two days. The cells were then incubated with the MTS for several hours before removal of the supernatant medium for determination of formazan, which is generated only by the viable cells. Results are expressed as percent cytotoxicity, which is simply the percent decline in measured formazan concentration in the sampled medium.

DU 145 = assay: Cytotoxicity GI50 (MTT and thymidine incorporation), DU 145; type: cell-based; details: Homo sapiens
Procedure: (§1) To confirm this observation, we compared the cytotoxicities of CMT-3 and doxycycline for a panel of common human prostate cancer cell lines. Cytotoxicity was measured using the MTT assay (see above) and a cellular thymidine incorporation assay as described by Lokeshwar et al. (1995a). The 50% growth inhibition (GI50) values obtained using both assays were identical. As shown in the data summarized in Table 3, below, CMT-3 was two- to eight-fold more cytotoxic than doxycycline.
(§2) Growth inhibition was calculated from linear regression of the dose-response curves generated for each experiment using log(dose) vs. cell proliferation (% of control). Correlation coefficient (r) was always ≧0.95 (negative). Results are presented as Mean±SEM of at least three GI50 values calculated from each experiment.

BPH-1 = assay: Cytotoxicity GI50 (MTT and thymidine incorporation), BPH-1; type: cell-based; details: Homo sapiens
Procedure: as §1, §2

Dunning MAT LyLu tumor [2] = assay: MAT LyLu tumor incidence, growth and metastasis, predosing 7 days before implant; type: in vivo, Copenhagen rats; details: for tumor growth rate (time to reach tumor volume of 3 cm^3): 40 mg/kg predosing, animals with measurable tumors, control 15.9±2.0; for decrease in the number of lung metastases: summary b179, predosing context; for remission of palpable tumors (rats): two separate experiments
Procedure: (§3) Tumor Generation and Treatment: Dunning MAT LyLu cells were harvested from culture flasks, and a 0.5 mL suspension containing from 2×10^5 to 2×10^6 cells/mL was inoculated into the dorsal flank of adult Copenhagen rats (Harlan Sprague Dawley, Indianapolis, Ind.). The rats weighed 250-300 g, and were 90-100 days old. Tumors were detected by palpating the skin around the site of injection starting 3 days following implant of the tumor cells (Lokeshwar et al. 1995a).
(§4) Drug Treatment In Vivo: Doxycycline and CMT-3 were dissolved in a 2% aqueous solution of a soluble form of carboxymethyl cellulose (Sigma Cat. No. C-5678), and a fresh solution was made up daily. Rats were gavaged daily with 1 mL of the drug solution (concentrations specified below), or the vehicle (2% carboxymethyl cellulose). Tumor growth was recorded three times a week, and rats were weighed weekly. The effect of various treatments on tumor growth was monitored over time using calipers, and the volume approximated to an ellipsoid (i.e., volume=length×width×height×0.5236) (Lokeshwar et al. 1993b). Tumor growth rate was determined by regression analysis of tumor volume versus time, for each tumor-bearing rat. Mean tumor growth rate (time to reach a fixed volume) for each treatment group was then used to evaluate the statistical significance of treatment efficacy using the INSTAT statistical program (Ravitz Software, San Diego, Calif.). Rats were euthanized once the tumor volume reached ≧10 cm^3. At that time animals were necropsied, tumors and lungs were removed and fixed in Bouin's fixative. Macroscopic tumor foci on the lungs were counted under a dissecting microscope.
In another series of experiments, we examined whether predosing host animals with the drugs would affect tumor growth and metastasis. Daily gavage of control or drugs (doxycycline or CMT-3; 40 mg/kg) was begun 7 days prior to the injections of the MAT LyLu tumor cells (2×10^5 cells/animal) and continued for a total of 21 days.
Tumor growth rates were calculated from thrice-weekly measurement of tumor volume with linear regression analysis of log-transformed volume measurements (Dudak et al. 1996).

C8161 cells = assay: C8161 cell proliferation (doubling time); type: cell-based, human; details: 50 μg/mL; for Doubling Time: on plastic, DMSO 22 hr
Procedure: Cell Culture and Maintenance: C8161 cells, a human melanoma cell line, were maintained in Dulbecco's modified Eagle's medium (DMEM; […] These cells were routinely screened for Mycoplasma contamination using the GenProbe Rapid Detection System (Fisher Scientific; Chicago, Ill.). Chemically Modified Tetracyclines: Fresh stock solutions of the chemically modified tetracycline compounds (2 mg/mL) were prepared for each experiment by hydrating in 2% dimethyl sulfoxide (DMSO)/water pH 10, then adjusting to pH 7.4 using 1.0 M HCl. […] Sigma Chem. Co.; control) or 50 μg/mL of doxycycline or the other CMTs (three wells on each plate per compound). […] The doubling time for C8161 cells in the presence of each compound was then determined and compared to the DMSO treated cells (control).

Dunning MAT LyLu tumor [3] = assay: MAT LyLu tumor growth and lung metastasis, gavage from day of implant; type: in vivo, Copenhagen rats
Procedure: as §3, §4
CMT-3 and doxycycline were tested for antitumor activity in vivo. In this series of experiments, daily gavage of drugs was started on the same day on which tumor cells were implanted in the test animals. Tumor growth was initiated by sub cutis injection of 1×10^6 tumor cells.

TSU-PR1 cells = assay: Matrigel invasion assay (Boyden chamber, MTT), TSU-PR1; type: cell-based, human; details: Homo sapiens; for IC50: TSU-PR1, 48 hr, read-out: 50% inhibitory dose (IC50), Matrigel invasion
Procedure: (§5) In this method, 4×10^5 tumor cells were plated on the top chamber of the Boyden chemotaxis assay chambers (Costar Transwell plates). The bottom side of the chamber was a 12 μm-pore polycarbonate filter layered with 0.5 mm thick layer of Matrigel. The bottom well contained a chemoattractant, a serum-free culture-conditioned medium from FHS 733 cells, a line of human fetal lung fibroblasts (ATCC No. HTB-157). Cancer cells (4×10^5) were plated in the top wells of the plates. Doxycycline or CMTs were diluted in a serum-free medium to 5 μg/mL, and were added to both top and bottom chambers. […] After 48 hr incubation, MTT was added to both the top and bottom wells (0.5 mg/mL), and incubation was continued for 4 hr. Wells were then emptied, and the cells from the undersides of the filter were pooled with those in the bottom wells with a filter tip. The reduced MTT (formazan) from top and bottom wells was solubilized with DMSO overnight, and absorbance (O.D.) at 515 nm was measured. The ratio of the O.D. from the bottom wells to that of the total (i.e., O.D. of top plus bottom wells) was taken as the invasive potential. […] The MTT assay procedure also normalizes the coincident inhibition due to the cytotoxic effects of the agents under investigation. Results presented are from three independent experiments.

PC-3 = assay: Cytotoxicity GI50 (MTT and thymidine incorporation), PC-3; type: cell-based; details: Homo sapiens
Procedure: as §1, §2

LNCaP = assay: Cytotoxicity GI50 (MTT and thymidine incorporation), LNCaP; type: cell-based; details: Homo sapiens
Procedure: as §1, §2

[4] = MTS cytotoxicity assay, COLO 205; details: human, COLO 205 colon carcinoma cells, percent cytotoxicity, two days
Dunning MAT LyLu cells = assay: Matrigel invasion assay (Boyden chamber, MTT), MAT LyLu; type: cell-based, rat
Procedure: as §5

[5] = 40 mg/kg daily oral gavage from day of implant

SMILES | cytotoxicity at 2 days, 5 µM [1] | GI50 (DU 145) | GI50 (BPH-1) | tumor growth rate (time to reach tumor volume of 3 cm^3) (Dunning MAT LyLu tumor [2]) | decrease in the number of lung metastases (Dunning MAT LyLu tumor [2]) | remission of palpable tumors (rats) (Dunning MAT LyLu tumor [2]) | Doubling Time (C8161 cells) | metastatic tumor foci in lungs (Dunning MAT LyLu tumor [3]; [5]) | IC50 (TSU-PR1 cells) | GI50 (PC-3) | GI50 (LNCaP) | cytotoxicity at 2 days, 5 µM [4] | cytotoxicity at 2 days, 10 µM [4] | cytotoxicity at 2 days, 20 µM [4] | cytotoxicity at 2 days, 50 µM [4] | cytotoxicity at 2 days, 100 µM [4] | further results
NC(=O)C1=C(O)CC2CC3Cc4cccc(O)c4C(=O)C3=C(O)C2(O)C1=O (centres unmarked) [CMT-3, 6-demethyl-6-deoxy-4-de(dimethylamino)tetracycline] | 0% | 5.06 ± 1.18 µM | 10.5 ± 3.7 µM | 20.2 ± 3.5 days | 58±8% | 30% | 28 h | 28.9±15.4 MTF/rat | 1.7 ± 0.31 µg/mL (≈ 4.58 µM) | 10.6 ± 2.1 µM | 5 ± 2.1 µM | 17% | 28.8% | 52% | 79% | 85.6% | tumor incidence lower than control or doxycycline groups by (Dunning MAT LyLu tumor [2]; 40 mg/kg, predosing): 55%±18; tumor remission (inhibition of tumor incidence) (Dunning MAT LyLu tumor [2]; 40 mg/kg, predosing): tumor remission (inhibition of tumor incidence) occurred; gain in body weights (Dunning MAT LyLu tumor [2]; at termination (6-month post-treatment observation), control 3%): 12%; decrease in MTF versus controls (Dunning MAT LyLu tumor [2]; predosing): 37.5%; MTF in treated animals (Dunning MAT LyLu tumor [2]; predosing, animals with tumors ≧10 cm^3, controls 74.2±6.4): 46.3±6.7; tumor incidence (Dunning MAT LyLu tumor [2]; preparation of CMT-3 of greater purity): 43%; increase of doubling time (C8161 cells; versus DMSO): ~27%; primary tumor growth versus control group (regression analysis of tumor volumes) (Dunning MAT LyLu tumor [3]; 20 mg/kg or 40 mg/kg): no significant difference; reduction in MTF relative to the control group (Dunning MAT LyLu tumor [3]; 40 mg/kg (10 mg/rat)): 51%; time from injection of cells to 3 cm^3 tumor (Dunning MAT LyLu tumor [3]; control 13.57±2.12 days): 14.0 ± 1.9 days; number of lung metastases (Dunning MAT LyLu tumor [3]; oral gavage daily for 21 days following implant, controls 59.5±13.9): 28.9±15.4 sites/animal; effect on invasive potential after pretreatment only (Dunning MAT LyLu cells; 48 hour pretreatment, no drug in the invasion chamber): only a moderate effect; inhibition of invasive/metastatic potential (Matrigel invasion) (Dunning MAT LyLu cells; MAT LyLu, 5 μg/mL, 48 hr): equally inhibited
C[C@H]1c2cccc(O)c2C(=O)C2=C(O)[C@]3(O)C(=O)C(C(N)=O)=C(O)[C@@H](N(C)C)[C@@H]3[C@@H](O)[C@@H]21 [Doxycycline, 6α-deoxy-5-hydroxy-tetracycline, reference compound] | 0% | 43.6 ± 9.36 µM | 21.3 ± 5.4 µM | 16.7 ± 1.9 days | 33±7.0% | 20% | 22 h | 43.6±18.8 MTF/rat | 27 ± 4.3 µg/mL (≈ 60.8 µM) | 36.4 ± 2.5 µM | 13.9 ± 2.97 µM | 0% | 0% | 45.7% | 58.8% | 66.5% | cytotoxicity at 2 days, 10 µM ([1]; 10 μM): 0%; cytotoxicity at 2 days, 20 µM ([1]; 20 μM): 4.5%; cytotoxicity at 2 days, 50 µM ([1]; 50 μM): 24.2%; cytotoxicity at 2 days, 100 µM ([1]; 100 μM): 29.5%; tumor incidence (Dunning MAT LyLu tumor [2]; 40 mg/kg daily, begun 7 days before implant, separate experiments): > 90%; metastatic tumor foci in lungs (Dunning MAT LyLu tumor [3]; 20 mg/kg daily oral gavage from day of implant): 39.7±17.2 MTF/rat; inhibition at 5 µg/mL (TSU-PR1 cells; TSU-PR1, 5 μg/mL, 48 hr): 8 ± 1.8%; inhibition at 5 µg/mL (Dunning MAT LyLu cells; Rattus norvegicus, MAT LyLu, 5 μg/mL, 48 hr, read-out: inhibition of invasive/metastatic potential (Matrigel invasion)): 68 ± 4.2%
